Reference: PubChem BioAssay (NCI)
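Exposure lasted 48 hours, with cells grown in 96-well plates and compounds tested at five concentrations. TGI marks complete inhibition of growth.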

These molecules were tested on MALME-3M melanoma (assay: NCI anticancer screen, dose series, 48 h).

Compound	TGI [µM]
CCCCCCCCCCCCCCCCOCC(O)CO (configuration not stated)	36.1

The molecules below were run on A498 renal (assay: NCI anticancer screen, dose series, 48 h).

Compound	TGI [µM]
CCOC(=O)C1=C(C)N(Cc2ccccc2)C2(O)C=CC(=O)C3=C(O)c4ccccc4C(=O)C312 (configuration not stated)	60.3
COc1cc(-c2cc(=O)c3c(O)c(OC)c(OC)c(OC)c3o2)cc(OC)c1OC	9.14
O=C(NCCCCCN1CCC2(CCCCC2)CC1)C(C1CCCCC1)C1CCCCC1	9.42
CC[C@@]1(O)C(=O)OCc2c1cc1n(c2=O)Cc2c-1nc1ccccc1c2/C=N\NC(=O)C(N)Cc1c[nH]c2ccccc12 (some centres not stated)	2.76
CCCCCCCCCCCCCCCCOCC(O)CO (configuration not stated)	34.5

The molecules below were run on EKVX NSCLC (assay: NCI anticancer screen, dose series, 48 h).

Compound	TGI [µM]
CCOC(=O)C1=C(C)N(Cc2ccccc2)C2(O)C=CC(=O)C3=C(O)c4ccccc4C(=O)C312 (configuration not stated)	39.6
COc1cc(-c2cc(=O)c3c(O)c(OC)c(OC)c(OC)c3o2)cc(OC)c1OC	> 100
COc1cc(/C=N/NC2=NCCN2)ccc1O	> 100
O=C(NCCCCCN1CCC2(CCCCC2)CC1)C(C1CCCCC1)C1CCCCC1	9.66
C/C(=N\NC(N)=S)c1ccc(C2CCCCC2)cc1	> 100
CC[C@@]1(O)C(=O)OCc2c1cc1n(c2=O)Cc2c-1nc1ccccc1c2/C=N\NC(=O)C(N)Cc1c[nH]c2ccccc12 (some centres not stated)	> 100
CCCCCCCCCCCCCCCCOCC(O)CO (configuration not stated)	36.3

These molecules were tested on DU-145 prostate (assay: NCI anticancer screen, dose series, 48 h).

Compound	TGI [µM]
CCOC(=O)C1=C(C)N(Cc2ccccc2)C2(O)C=CC(=O)C3=C(O)c4ccccc4C(=O)C312 (configuration not stated)	38.3
COc1cc(-c2cc(=O)c3c(O)c(OC)c(OC)c(OC)c3o2)cc(OC)c1OC	> 100
COc1cc(/C=N/NC2=NCCN2)ccc1O	> 100
O=C(NCCCCCN1CCC2(CCCCC2)CC1)C(C1CCCCC1)C1CCCCC1	9.75
CC[C@@]1(O)C(=O)OCc2c1cc1n(c2=O)Cc2c-1nc1ccccc1c2/C=N\NC(=O)C(N)Cc1c[nH]c2ccccc12 (some centres not stated)	> 100
CCCCCCCCCCCCCCCCOCC(O)CO (configuration not stated)	34

Each molecule was assayed on T-47D breast (assay: NCI anticancer screen, dose series, 48 h).

Compound	TGI [µM]
CCOC(=O)C1=C(C)N(Cc2ccccc2)C2(O)C=CC(=O)C3=C(O)c4ccccc4C(=O)C312 (configuration not stated)	45
COc1cc(-c2cc(=O)c3c(O)c(OC)c(OC)c(OC)c3o2)cc(OC)c1OC	> 74.3
COc1cc(/C=N/NC2=NCCN2)ccc1O	> 100
O=C(NCCCCCN1CCC2(CCCCC2)CC1)C(C1CCCCC1)C1CCCCC1	8.43
CC[C@@]1(O)C(=O)OCc2c1cc1n(c2=O)Cc2c-1nc1ccccc1c2/C=N\NC(=O)C(N)Cc1c[nH]c2ccccc12 (some centres not stated)	> 100
CCCCCCCCCCCCCCCCOCC(O)CO (configuration not stated)	46.2

Each molecule was assayed on KM20L2 colon (assay: NCI anticancer screen, dose series, 48 h).

Compound	TGI [µM]
C/C(=N\NC(N)=S)c1ccc(C2CCCCC2)cc1	30.1

The molecules below were run on MDA-MB-435 (assay: NCI anticancer screen, dose series, 48 h).

Compound	TGI [µM]
CCOC(=O)C1=C(C)N(Cc2ccccc2)C2(O)C=CC(=O)C3=C(O)c4ccccc4C(=O)C312 (configuration not stated)	27.5
COc1cc(-c2cc(=O)c3c(O)c(OC)c(OC)c(OC)c3o2)cc(OC)c1OC	> 100
COc1cc(/C=N/NC2=NCCN2)ccc1O	> 100
O=C(NCCCCCN1CCC2(CCCCC2)CC1)C(C1CCCCC1)C1CCCCC1	3.74
CC[C@@]1(O)C(=O)OCc2c1cc1n(c2=O)Cc2c-1nc1ccccc1c2/C=N\NC(=O)C(N)Cc1c[nH]c2ccccc12 (some centres not stated)	> 87.9
CCCCCCCCCCCCCCCCOCC(O)CO (configuration not stated)	33.4

Each molecule was assayed on NCI-H226 lung (assay: NCI anticancer screen, dose series, 48 h).

Compound	TGI [µM]
CCOC(=O)C1=C(C)N(Cc2ccccc2)C2(O)C=CC(=O)C3=C(O)c4ccccc4C(=O)C312 (configuration not stated)	54.4
COc1cc(-c2cc(=O)c3c(O)c(OC)c(OC)c(OC)c3o2)cc(OC)c1OC	> 80.1
COc1cc(/C=N/NC2=NCCN2)ccc1O	> 100
O=C(NCCCCCN1CCC2(CCCCC2)CC1)C(C1CCCCC1)C1CCCCC1	11.8
CC[C@@]1(O)C(=O)OCc2c1cc1n(c2=O)Cc2c-1nc1ccccc1c2/C=N\NC(=O)C(N)Cc1c[nH]c2ccccc12 (some centres not stated)	11.9
CCCCCCCCCCCCCCCCOCC(O)CO (configuration not stated)	40

Each molecule was assayed on RPMI-8226 leukemia (assay: NCI anticancer screen, dose series, 48 h).

Compound	TGI [µM]
CCOC(=O)C1=C(C)N(Cc2ccccc2)C2(O)C=CC(=O)C3=C(O)c4ccccc4C(=O)C312 (configuration not stated)	31.2
COc1cc(-c2cc(=O)c3c(O)c(OC)c(OC)c(OC)c3o2)cc(OC)c1OC	> 100
COc1cc(/C=N/NC2=NCCN2)ccc1O	> 100
O=C(NCCCCCN1CCC2(CCCCC2)CC1)C(C1CCCCC1)C1CCCCC1	4.71
C/C(=N\NC(N)=S)c1ccc(C2CCCCC2)cc1	> 100
CC[C@@]1(O)C(=O)OCc2c1cc1n(c2=O)Cc2c-1nc1ccccc1c2/C=N\NC(=O)C(N)Cc1c[nH]c2ccccc12 (some centres not stated)	17.3
CCCCCCCCCCCCCCCCOCC(O)CO (configuration not stated)	37.4

What follows are molecules tested on HT29 colon (assay: NCI anticancer screen, dose series, 48 h).

Compound	TGI [µM]
CCOC(=O)C1=C(C)N(Cc2ccccc2)C2(O)C=CC(=O)C3=C(O)c4ccccc4C(=O)C312 (configuration not stated)	> 100
COc1cc(-c2cc(=O)c3c(O)c(OC)c(OC)c(OC)c3o2)cc(OC)c1OC	> 100
COc1cc(/C=N/NC2=NCCN2)ccc1O	> 100
O=C(NCCCCCN1CCC2(CCCCC2)CC1)C(C1CCCCC1)C1CCCCC1	4.62
C/C(=N\NC(N)=S)c1ccc(C2CCCCC2)cc1	34.5
CC[C@@]1(O)C(=O)OCc2c1cc1n(c2=O)Cc2c-1nc1ccccc1c2/C=N\NC(=O)C(N)Cc1c[nH]c2ccccc12 (some centres not stated)	> 100
CCCCCCCCCCCCCCCCOCC(O)CO (configuration not stated)	31.8

These molecules were tested on HOP-92 NSCLC (assay: NCI anticancer screen, dose series, 48 h).

Compound	TGI [µM]
CCOC(=O)C1=C(C)N(Cc2ccccc2)C2(O)C=CC(=O)C3=C(O)c4ccccc4C(=O)C312 (configuration not stated)	41.8
COc1cc(-c2cc(=O)c3c(O)c(OC)c(OC)c(OC)c3o2)cc(OC)c1OC	27.3
COc1cc(/C=N/NC2=NCCN2)ccc1O	> 100
O=C(NCCCCCN1CCC2(CCCCC2)CC1)C(C1CCCCC1)C1CCCCC1	12.2
CC[C@@]1(O)C(=O)OCc2c1cc1n(c2=O)Cc2c-1nc1ccccc1c2/C=N\NC(=O)C(N)Cc1c[nH]c2ccccc12 (some centres not stated)	> 54
CCCCCCCCCCCCCCCCOCC(O)CO (configuration not stated)	41.9

Each molecule was assayed on COLO 205 colon (assay: NCI anticancer screen, dose series, 48 h).

Compound	TGI [µM]
CCOC(=O)C1=C(C)N(Cc2ccccc2)C2(O)C=CC(=O)C3=C(O)c4ccccc4C(=O)C312 (configuration not stated)	30.4
COc1cc(-c2cc(=O)c3c(O)c(OC)c(OC)c(OC)c3o2)cc(OC)c1OC	> 100
COc1cc(/C=N/NC2=NCCN2)ccc1O	> 100
O=C(NCCCCCN1CCC2(CCCCC2)CC1)C(C1CCCCC1)C1CCCCC1	2.84
C/C(=N\NC(N)=S)c1ccc(C2CCCCC2)cc1	26.1
CC[C@@]1(O)C(=O)OCc2c1cc1n(c2=O)Cc2c-1nc1ccccc1c2/C=N\NC(=O)C(N)Cc1c[nH]c2ccccc12 (some centres not stated)	> 100
CCCCCCCCCCCCCCCCOCC(O)CO (configuration not stated)	50.8

What follows are molecules tested on SW-620 colon (assay: NCI anticancer screen, dose series, 48 h).

Compound	TGI [µM]
CCOC(=O)C1=C(C)N(Cc2ccccc2)C2(O)C=CC(=O)C3=C(O)c4ccccc4C(=O)C312 (configuration not stated)	28.2
COc1cc(/C=N/NC2=NCCN2)ccc1O	> 100
O=C(NCCCCCN1CCC2(CCCCC2)CC1)C(C1CCCCC1)C1CCCCC1	8.05
CC[C@@]1(O)C(=O)OCc2c1cc1n(c2=O)Cc2c-1nc1ccccc1c2/C=N\NC(=O)C(N)Cc1c[nH]c2ccccc12 (some centres not stated)	> 100
CCCCCCCCCCCCCCCCOCC(O)CO (configuration not stated)	41.2

What follows are molecules tested on MCF7 breast (assay: NCI anticancer screen, dose series, 48 h).

Compound	TGI [µM]
CCOC(=O)C1=C(C)N(Cc2ccccc2)C2(O)C=CC(=O)C3=C(O)c4ccccc4C(=O)C312 (configuration not stated)	3.44
COc1cc(-c2cc(=O)c3c(O)c(OC)c(OC)c(OC)c3o2)cc(OC)c1OC	> 100
COc1cc(/C=N/NC2=NCCN2)ccc1O	> 100
O=C(NCCCCCN1CCC2(CCCCC2)CC1)C(C1CCCCC1)C1CCCCC1	5.37
CC[C@@]1(O)C(=O)OCc2c1cc1n(c2=O)Cc2c-1nc1ccccc1c2/C=N\NC(=O)C(N)Cc1c[nH]c2ccccc12 (some centres not stated)	> 55.7
CCCCCCCCCCCCCCCCOCC(O)CO (configuration not stated)	38.1

Each molecule was assayed on MDA-N (assay: NCI anticancer screen, dose series, 48 h).

Compound	TGI [µM]
CCOC(=O)C1=C(C)N(Cc2ccccc2)C2(O)C=CC(=O)C3=C(O)c4ccccc4C(=O)C312 (configuration not stated)	22.3
COc1cc(-c2cc(=O)c3c(O)c(OC)c(OC)c(OC)c3o2)cc(OC)c1OC	> 100
COc1cc(/C=N/NC2=NCCN2)ccc1O	> 100
O=C(NCCCCCN1CCC2(CCCCC2)CC1)C(C1CCCCC1)C1CCCCC1	3.51
CC[C@@]1(O)C(=O)OCc2c1cc1n(c2=O)Cc2c-1nc1ccccc1c2/C=N\NC(=O)C(N)Cc1c[nH]c2ccccc12 (some centres not stated)	> 100
CCCCCCCCCCCCCCCCOCC(O)CO (configuration not stated)	60.6

The molecules below were run on OVCAR-5 ovarian (assay: NCI anticancer screen, dose series, 48 h).

Compound	TGI [µM]
CCOC(=O)C1=C(C)N(Cc2ccccc2)C2(O)C=CC(=O)C3=C(O)c4ccccc4C(=O)C312 (configuration not stated)	31.7
COc1cc(-c2cc(=O)c3c(O)c(OC)c(OC)c(OC)c3o2)cc(OC)c1OC	> 100
COc1cc(/C=N/NC2=NCCN2)ccc1O	> 100
O=C(NCCCCCN1CCC2(CCCCC2)CC1)C(C1CCCCC1)C1CCCCC1	17.7
C/C(=N\NC(N)=S)c1ccc(C2CCCCC2)cc1	35.1
CC[C@@]1(O)C(=O)OCc2c1cc1n(c2=O)Cc2c-1nc1ccccc1c2/C=N\NC(=O)C(N)Cc1c[nH]c2ccccc12 (some centres not stated)	> 87
CCCCCCCCCCCCCCCCOCC(O)CO (configuration not stated)	52.2

What follows are molecules tested on SNB-78 CNS (assay: NCI anticancer screen, dose series, 48 h).

Compound	TGI [µM]
C/C(=N\NC(N)=S)c1ccc(C2CCCCC2)cc1	91.1

Each molecule was assayed on HCT-116 colon (assay: NCI anticancer screen, dose series, 48 h).

Compound	TGI [µM]
CCOC(=O)C1=C(C)N(Cc2ccccc2)C2(O)C=CC(=O)C3=C(O)c4ccccc4C(=O)C312 (configuration not stated)	21.8
COc1cc(-c2cc(=O)c3c(O)c(OC)c(OC)c(OC)c3o2)cc(OC)c1OC	> 44.9
COc1cc(/C=N/NC2=NCCN2)ccc1O	> 100
O=C(NCCCCCN1CCC2(CCCCC2)CC1)C(C1CCCCC1)C1CCCCC1	8.85
C/C(=N\NC(N)=S)c1ccc(C2CCCCC2)cc1	44.6
CC[C@@]1(O)C(=O)OCc2c1cc1n(c2=O)Cc2c-1nc1ccccc1c2/C=N\NC(=O)C(N)Cc1c[nH]c2ccccc12 (some centres not stated)	15.5
CCCCCCCCCCCCCCCCOCC(O)CO (configuration not stated)	34.1
